In patent publication US6297032A, “Recombinant cephalosporin C amidohydrolase in cephalosporin biosynthesis” (Glaxo Group Limited, priority 1994, dated 2001):

What was measured:
[1] = system: cephalosporin C amidohydrolase; assay: Substrate comparison, assay response by HPLC, enzyme from NM522/pVS44 cells; format: biochemical, Pseudomonas vesicularis
Procedure: (§1) The enzyme reaction mix was derivatised as above a 20 μl sample applied in a mobile phase consisting of 35% acetonitrile, 0.1% trifluoroacetic acid in HPLC-grade water onto a 15 cm Hypersil ODS 5μ column at 32° C. with a flow rte of 1.5 ml/min. Detection by fluorescence spectroscopy was as above. In this system authentic 7ACA standard has a retention time of 6.7 minutes, with a minor degradation peak at
(a) Assay response is given as product yield standardised to the 7ACA produced from GL-7ACA under equivalen reaction conditions. For this comparison it is assumed that products have molar extinction coefficients equivalent to 7ACA, such that the response was calculated directly from product peak area on HPLC. The standard reaction used 100 μl enzyme prepared by the procedure of preparation of 2(d) from NM522/p/VS44 cells, with 10 mg/ml substrate in overnight reaction at 27° C.
(b) Assay response obtained using 10 μl of above enzyme extract, with 3 mg/ml substrate in 2 hour reaction at 27° C. The actual response was then extrapolated to equivalent conditions to those used with the more slowly hydrolysed substrates.

[2] = system: cephalosporin C amidohydrolase; assay: Enzyme activity assay, B965 whole cells (7ACA production); format: biochemical, Pseudomonas vesicularis B965
Procedure: (§2) Substrate buffer consists of 50 mM sodium phosphate buffer pH 7.0 containing 13.5 mg/ml cloxacillin and GL-7CA (3 mg/ml) or cephalosporin C (10 mg/ml). Cell suspensions or semi-purifed enzyme samples were incubated in substrate buffer for up to 24 hours at 37° C. At a suitable time a 100 μl aliquot of fluram reagent was then added, mixed and the sample incubated at room temperture for 1 hour. Fluram reagent consists of fluroescamine (Sigma Chemical Co) at 1 mg/ml in dry acetone. The presence of 7ACA in the reaction mix was detected after derivatisation of the free primary amine group by using fluorescence spectroscopy at an excitation wave length of 378 nm and emission detection at 498 nm in a flow injection assay system with 10% acetone in water as carrier fluid.
as §1
In typical experiments using these conditions B965 cells sufficient to fill a 10 μl inoculating loop produced 320 μg/ml 7ACA in 18 hours incubation GL-7ACA as substrate. […]

[3] = system: Immobilised amidohydrolase; assay: Immobilised amidohydrolase activity (pH stat, DMAB assay); format: biochemical, Pseudomonas vesicularis; conditions: for Activity μmole 7ACA/min/g dry weight immobilised enzyme / Activity μmole/min/g wet weight immobilised enzyme: 50 mg/ml substrate in water, 25° C., pH 8.0
Procedure: E. coli strain NM522/pVS 44 was grown on TSB medium supplemented with 10 μg/ml choramphenicol and solidified with 1.5% w/v agar. Growth was for 2-4 days at 27.5° C. Cell paste was recovered by scraping from the agar surface, resuspended and washed in lysis buff (10 mM MOPS pH 8.0; 1 mM DTT; 1 mM benzamidine). About 65 g cell paste was lysed in 350 ml ice cold buffer by sonication (650W output, power setting 4, 5 passes through a continuous flow head at 35 ml/min flow, sample chilled on ice). The lysate was clarified by centrifugation (15,000 rpm, 30 min) to yield 3120 mg soluble protein. This material was passed over a 300 ml column of pre-equlibrated DE52 cellulose. Fractions eluting between 100 ml-500 ml after loading contained amidohydrolase activity in a total of 398 mg protein. The protein was concentrated using a centrifugal membrance device (Centriprep 30 concentrator, Amicon).
The concentrated extract (300 mg protein, 12.54 ml) was adjusted to 100 mM phosphate buffer pH 8.0:1 mM DTT; 1 mM benzamidine, and mixed with 3.0 g (dry weight) oxirane-linked polyacrylic matrix (Eupergit C: Rohm Pharma GmbH, D-6100 Darmstadt Germany). Immobilisation, monitored by protein removal from the liquid phase, was complete by 116 hours. About 120 mg protein became covalently linked to the support. Excess protein was removed by washing in the phosphate buffer.
Immobilised amidohydrolase activity was monitored by allowing the enzyme catalysed reaction to occur using an automated control system set to detect and maintain the reaction pH at a set point (a pH stat system). A pH monitor was set such that a fall in pH from the set point triggered a peristaltic pump to allow regulated dosing of alkali titrant.
A reaction volume of 50 ml contained 50 mg/ml substrate (GL-7ACA or Ceph C) in water maintained at 25° C. The reaction mix was adjusted to pH 8.0 using 2M NaOH as titrant before addition of about 3 g dry weight (12 g wet weight) immobilised enzyme to initate the reaction. The suspension was stirred using an overhead paddle type stirrer. Reaction progress was monitored by titrant addition rate and sampling at intervals. The samples were assayed for 7ACA by the DMAB method as in preparation 1(a). By this method the following activities were measured. (Table 8.)

[4] = system: cephalosporin C amidohydrolase; assay: Cephalosporin C amidohydrolase enzyme properties, kinetic; format: biochemical, Pseudomonas vesicularis B965
Procedure: as §2
Further purification of the amidohydrolase was undertaken using an FPLC system (Pharmacia LKB Biotechnology, S-751 82 Uppsala, Sweden) in order to define the properties of the enzyme.
Material recovered from the 30-60% saturation ammonium sulphate precipitate was resuspended in MOPS buffer (10 mM MOPS pH8.0, 1 mM benzamidine). The solution was clarified by brief centrifugation followed by filration through a 0.2 micron filter. A 5 ml aliquot of enzyme mixture was applied to an HR5/5 MonoQ column pre-equilibrated with MOPS buffer. Amidohydrolase activity was recovered in the eluate between 2-4 after loading. This fraction was adjusted to 30% saturation in ammonium sulphate and loaded to an HR10/30 phenylsuperose column. Elution of protein was achieved using a salt gradient regime varying from 30%-0% saturation in ammonium sulphate with a running buffer consisting of 100 mM sodium phosphate pH7.0, 1 mM DTT. Amidohydrolase activity was recovered at between 18.5%-15.0% saturation of ammonium sulphate under these conditions.

[5] = system: cephalosporin C amidohydrolase; assay: Enzyme activity assay, partially purified amidohydrolase recovered from B965; format: biochemical, Pseudomonas vesicularis B965
Procedure: as §2, with “Cell” for “Substrate buffer consists of 50 mM sodium phosphate buffer pH 7.0 containing 13.5 mg/ml cloxacillin and GL-7CA (3 mg/ml) or cephalosporin C (10 mg/ml). Cell”
B965 cells were cultured on TSB agar plates essentially by the method of preparation 1(b). The cells were harvested into enzyme buffer, washed and finally resuspended in 10 ml chilled enzyme buffer. Enzyme buffer is 100 mM sodium phosphate buffer (pH 7.0) containing 1 mM DTT and 1 mM benzamidine. The cells were lysed by sonication using a 650W output sonicator (model W-380, Heat System Ultrasonics Inc, 1938 New Highway, Farmingdale, N.Y. 11735, USA) on power settings 2-3, 50% cycle, for 12 , minutes . The extract was clarifed by centrifugation at 18,000 g for 15 minutes at 4° C. The supernatant was recovered, adjusted to 10 ml volume in enzyme buffer, then solid ammonium sulphate was added slowly with gentle mixing at 4° C. to 30% saturation. […]

[6] = system: cephalosporin C amidohydrolase; assay: Enzyme activity assay, E. coli B1113 extract after DE52 cellulose; format: biochemical, Pseudomonas vesicularis; conditions: extract 50
Procedure: as §2
E. coli B1113 was grown on TSB agar plates following the method of preparation 1(b). The confluent cell growth was processed for amidohydrolase recovery essentially following the procedure of preparation 1(d) to the cell-free extract stage.
Amidohydrolase activity was further purified by application of the cell-free extract to a DE52 cellulose column (Whatman Ltd, Maidstone, Kent ME14 2ME). The majority of proteins in the extract bind to the matrix and amidohydrolase activity is not retained. […]

[7] = system: cephalosporin C amidohydrolase; assay: Enzyme activity assay, NM522/pVS44 extract after DE52 cellulose; format: biochemical, Pseudomonas vesicularis; conditions: 10 μl extract; 50 mg/ml cephalosporin C; 3 hour incubation at 27° C.
Procedure: as §2
Cephalosporin C amidohydrolase enzyme activity was recovered from NM522/pVS44 cells using procedures of preparation 1(b) and 1(c) to the cell free extract stage followed by chromatography on DE52 cellulose as described above. In a typical assay using the method of preparation 1(c), a 10 μl extract produced 12 μg/ml 7ACA from 50 mg/ml cephalosporin C in a 3 hour incubation at 27° C. This represents approximately 30-fold improvement over the level of activity obtained using B1113 strain extract aat an equivalent stage of purification.

[8] = system: gram-negative microorganisms; conditions: against gram-negative microorganisms; cited from earlier work
[9] = 100 μl enzyme from NM522/pVS44 cells, 10 mg/ml substrate, overnight reaction at 27° C., standardised to 7ACA produced from GL-7ACA

## CC(=O)OCC1=C(C(=O)O)N2C(=O)[C@@H](NC(=O)CCCC(NC(=O)c3ccccc3)C(=O)O)[C@H]2SC1 (some centres unmarked) [benzoylcephalosporin C]
[1]; [9]
  Assay response (% rate of 7ACA): 2.8%

## O=C(CCCC(NC(=O)c1ccccc1)C(=O)O)N[C@@H]1C(=O)N2C(C(=O)[O-])=C(C[n+]3ccccc3)CS[C@H]12 (some centres unmarked) [benzoylcephalosporin-3-pyridiniummethyl]
[1]; [9]
  Assay response (% rate of 7ACA): 3.5%

## N[C@H](CCCC(=O)N[C@@H]1C(=O)N2C(C(=O)O)=C(CO)CS[C@H]12)C(=O)O [deacetylcephalosporin C]
[1]; [9]
  Assay response (% rate of 7ACA): 9.8%

## CC(=O)OCC1=C(C(=O)O)N2C(=O)[C@@H](NC(=O)CCC(=O)O)[C@H]2SC1 [succinyl-7ACA]
[1]; [9]
  Assay response (% rate of 7ACA): 0.8%

## CC(=O)OCC1=C(C(=O)O)N2C(=O)[C@@H](NC(=O)CCCC(=O)O)[C@H]2SC1 [GL-7ACA, 7-β-(4-carboxybutanamido)-cephalosporanic acid]
[2]; B965 cells filling a 10 μl inoculating loop, GL-7ACA as substrate, 18 hours incubation
  7 ACA Produced: 320 µg/mL
[1]; 10 μl enzyme extract, 3 mg/ml substrate, 2 hour reaction at 27° C., extrapolated to equivalent conditions (reference = 100)
  Assay response (% rate of 7ACA): 100%
[3]
  Activity μmole 7ACA/min/g dry weight immobilised enzyme: 4.7 μmole 7ACA/min/g dry weight im
  Activity μmole/min/g wet weight immobilised enzyme: 1.2 μmole/min/g wet weight immobil
[3]; GL-7ACA as substrate, immobilised enzyme
  conversion achieved: 9.0%
[4]; GL-7ACA substrate at 1.2-7.2 mM
  Km: 2000 to 4000 µM
[5]; extract 10 μl, GL-7ACA 2 mg/ml, 4 hr
  7 ACA Produced: 22 µg/mL
[6]; GL-7ACA 3 mg/ml, 3 hr
  7 ACA Produced: 102 µg/mL

## N.N.O=S(=O)(O)O [ammonium sulphate]
[4]
  Inhibitors (inhibitory concentration): > 6 % w/v

## CC(=O)OCC1=C(C(=O)O)N2C(=O)[C@@H](NC(=O)CCC[C@@H](N)C(=O)O)[C@H]2SC1 [Ceph C, cephalosporin C]
[7]
  7 ACA Produced: 12 µg/mL
[2]; double the volume of B965 cells, cephalosporin C as substrate, overnight incubation
  7 ACA Produced: 5 µg/mL
[1]; [9]
  Assay response (% rate of 7ACA): 8.0%
[3]
  Activity μmole 7ACA/min/g dry weight immobilised enzyme: 0.95 μmole 7ACA/min/g dry weight im
  Activity μmole/min/g wet weight immobilised enzyme: 0.24 μmole/min/g wet weight immobil
[3]; cephalosporin C substrate, 22 hours, immobilised enzyme
  maximum conversion: 1.7%
[4]; using Ceph C substrate
  Specific activity maximum: 0.141 μmol 7ACA/min/mg enzyme
[5]; extract 80 μl, Ceph C 50 mg/ml, 8 hr
  7 ACA Produced: 14.5 µg/mL
[8]
  activity as an antibiotic: some activity
[6]; Ceph C 10 mg/ml, 4 hr
  7 ACA Produced: 4.5 µg/mL
